Data on 1 molecule can be found in US7625887B2, “Receptor agonists” (Takeda Pharmaceutical Company Limited, priority 2003, dated 2009).

Structures are written as SMILES.

The subject of experiment [1] is NCI-H716 cells. The experiment can be described thus: GLP-1 secretion from NCI-H716 cell line. It is filed as cell-based, human. Particulars: bile acid 25 μM, 2 hrs; secretion amount in Base was 100%. The protocol: NCI-H716 cells secrete Glucagon-like peptide-1 (GLP-1). GLP-1 is a peptide useful for controlling blood glucose level because it acts on the pancreas to cause secretion of insulin and the like. In the same manner as in Experimental Example 9, NCI-H716 (ATCC) was seeded in a 96 well plate and, after incubation for 2 days, used for the following secretion test. As a buffer for secretion test, modified Krebs-Ringer bicarbonate buffer (KRBH, 116 mM NaCl, 4.7 mM KCl, 1.2 mM KH2PO4, 1.2 mM MgSO4, 2.5 mM CaCl2, 25 mM NaHCO3, 24 mM HEPES, pH 7.3) supplemented with glucose 5.5 mM and BSA 0.1% was used. The cells were washed once with the buffer for secretion test, preincubated at 37° C. under 5% CO2, bile acid diluted with the buffer for secretion test was added and the cells were cultured at 37° C. under 5% CO2 for 2 hrs. The cell culture supernatant was collected, cryopreserved and the GLP-1 content in the supernatant was measured using a GLP-1 measurement EIA kit (Linco) The results are shown in Table 9. In the Table, Base means non-addition of a test compound.

Experiment [2] relates to THP-TGR5 cells. In words: suppression of LPS induced TNF α secretion in THP-TGR5 cells. It is filed as cell-based, human. The settings on record: bile acid 50 μM, non-addition: 11 with LPS, 2.7 without LPS. The protocol:
TGR5 high expression cells were established by introducing TGR5 gene into human macrophage cells line THP-1. According to a conventional method, pcDNA-TGR5 incorporating cDNA of human TGR5 in pcDNA3.1 (Invitrogen) was prepared. Then, THP-1 was cultured in a medium (RPMI1640 10% FBS), and pcDNA-TGR5 was introduced thereinto using lipofectamine (Gibco BRL) according to conventional methods. Thereafter, G418 (Gibco BRL) was added to the medium to select resistant strains, and cells line, THP-TGR5 that expresses TGR5 stably and highly was established.
THP-TGR5 thus obtained was diluted to a concentration of 1×10^5/well and cultured overnight in a 96 well plate in the presence of 10^−8M phorbol ester (Wako Pure Chemical Industries, Ltd.). THP-TGR5 after culture was cultured for 1 hr in a medium containing a test compound or a control medium (0.1 ml) free of a test compound, 0.1 ml of a medium containing the same concentration of the test compound or a control medium free of the test compound, each of which containing LPS for induction of TNF α secretion was added (concentration at the time of addition 50 ng/ml) and the mixture was incubated at 37° C. under 5% CO2 for 14 hrs. The culture supernatant was collected and the TNF α content was measured with the growth suppressing effect on the TNF sensitive cell line L929 (RIKEN Institute) as an index.
L929 cells were seeded in a 96 well plate at 1.2×10^4/well and incubated overnight at 37° C. under 5% CO2. The obtained culture product was cultured overnight in a medium (phenol red free Dulbecco's Modified Eagle Medium (Invitrogen) supplemented with 10% fetal bovine serum (Invitrogen), 100 U/ml penicillin and 100 μg/ml streptomycin), which contained the aforementioned THP-TGR5-containing culture supernatant and 2 μg/ml Actinomycin D (Wako Pure Chemical Industries, Ltd.). The TNF α content was determined by measuring the growth of the L929 cells in the obtained culture product using a Cell Counting Kit-8 (Wako Pure Chemical Industries, Ltd.). As the standard sample, human recombinant TNF α (Genzyme) was used.

As for `C[C@H](CCC(=O)NCCS(=O)(=O)O)[C@H]1CC[C@H]2[C@@H]3CC[C@@H]4C[C@H](O)CC[C@]4(C)[C@H]3CC[C@]12C` [TLCA, taurolithocholic acid, reference compound], the “GLP-1 secretion increase (%)” value in experiment [1] stood at 124%. For the same molecule, in experiment [2], the “TNF α” value amounted to 0.22 ng/mL.
